Laboratory results: patent publication US20160114044A1, “COMPOSITON BASED ON BIOCOMPATIBLE ANIONIC POLYMER FOR DRUG DELIVERY AND PREPARING METHOD THEREOF” (RESEARCH & BUSINESS FOUNDATION SUNGKYUNKWAN UNIVERSITY, priority 2014, published 2016)

What was measured:
[1] = In-vitro viability assay (MTS); assay type: cell-based; settings: mouse, bone marrow derived dendritic cells (BMDCs), after 48 h, normalized to untreated cells, read-out: cell viability / proliferation of BMDCs
Description: BMDCs were isolated from mouse bone marrow as reported previously. MTS assay for analysis of mitochondrial activity was used as a measure of cell viability. 1×10^4 cells in 100 μL media were seeded per well in a 96 well plate (Corning Costar, Cambridge, Mass., USA). 100 μl of sample dispersion was added to cell culture media and incubated for 24 h and 48 h at 37° C. and 5% CO2. After the incubation, 20 μL of MTS solution-Cell Titer 96 Aqueous One Solution kit (Promega, Madison, Wis., USA) was added to each well and incubated for 2 h. The absorbance of the samples was measured at 490 nm (VersaMax, Molecular Devices, Sunnyvale, Calif., USA) and normalized with respect to absorbance of untreated cells.

[2] = Stability and size of micro-dispersions in distilled water; assay type: physicochemical; settings: dispersed in water without γ-PGA
Description: The particle size of the redispersed solutions of γ-PGA/Ptx and γ-PGA/Imq was measured using Electrophoretic Light Scattering-ELS Z (Otsuka Electronics, Osaka, Japan). The stability of the dispersion was assessed by observing the samples for aggregation and phase separation after storing the sample at 4° C. for 1 week after dispersion in distilled water. The morphology of theses micro-dispersions were observed through FE-SEM (JSM-7000F, JEOL Ltd. Japan) and FE-TEM (JEM-2100F HR, JEOL Ltd. Japan). For the SEM sample preparation, the lyophilized and redispersed suspension was deposited on a silicon wafer plate and vacuum-dried to remove water, followed by platinum coating using a Technics Hummer II sputter coater at 30 mA for 90 s. For TEM sample preparation, a drop (2 μL) of redispersed suspension was placed onto a formvar/carbon coated copper grid, followed by vacuum-drying to evaporate water.
Distinct monodisperse peaks for γ-PGA/Imq and γ-PGA/Ptx/Imq were observed, indicating uniform size distribution (FIG. 3). In case of γ-PGA/Ptx, two peaks were observed, which might be due to a high aspect ratio of the paclitaxel crystal.

SMILES	viability at 48 h [1] [%]	dispersion state in water without γ-PGA [2]
CC(C)Cn1cnc2c(N)nc3ccccc3c21 [imiquimod]	250	aggregation and precipitation
CC(=O)O[C@H]1C(=O)[C@@]2(C)[C@H]([C@H](OC(=O)c3ccccc3)[C@]3(O)C[C@H](OC(=O)[C@H](O)[C@@H](NC(=O)c4ccccc4)c4ccccc4)C(C)=C1C3(C)C)[C@]1(OC(C)=O)CO[C@@H]1C[C@@H]2O [paclitaxel]		aggregation and precipitation
